Test results taken from patent US11452717B2, “Small molecule activators of nicotinamide phosphoribosyltransferase (NAMPT) and uses thereof” (Sanford Burnham Prebys Medical Discovery Institute, priority 2017, dated 2022).

These molecules were tested against NAMPT enzyme (Homo sapiens (Human), UniProt P43490) (assay: Enzyme Assay and NMN Detection (NAMPT reaction, fluorescence detection of NMN)). Conditions: Table B-1; NAMPT activation, NMN formation.
Format: biochemical
Method in brief: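 Reaction in 50 mM HEPES pH 7.5, 5 mM MgCl2, 0.1% Prionex, 0.005% Tween 20, 1 mM TCEP at room temperature, with 16 nM NAMPT, 120 uM ATP, 5 uM nicotinamide, 6.25 uM PRPP, 0.04 U/ml pyrophosphatase for 2 h. Stopped with acetophenone/KOH then formic acid; NMN quantified by fluorescence (ex380/em460) against calibration curve.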

Sequence of NAMPT enzyme (P43490 whole entry, species assumed): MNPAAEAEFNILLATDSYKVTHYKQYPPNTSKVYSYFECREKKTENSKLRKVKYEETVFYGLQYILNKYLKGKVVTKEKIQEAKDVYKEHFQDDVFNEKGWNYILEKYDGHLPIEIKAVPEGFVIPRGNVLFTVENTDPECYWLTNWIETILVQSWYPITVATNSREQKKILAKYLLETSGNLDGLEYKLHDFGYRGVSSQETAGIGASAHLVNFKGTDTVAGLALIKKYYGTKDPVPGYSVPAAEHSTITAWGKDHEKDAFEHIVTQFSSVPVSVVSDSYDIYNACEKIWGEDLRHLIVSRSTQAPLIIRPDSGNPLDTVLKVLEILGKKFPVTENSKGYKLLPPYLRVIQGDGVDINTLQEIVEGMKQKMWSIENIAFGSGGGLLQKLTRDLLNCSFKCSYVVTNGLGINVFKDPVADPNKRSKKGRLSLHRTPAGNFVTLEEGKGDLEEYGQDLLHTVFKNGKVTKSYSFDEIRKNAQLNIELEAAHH

EC50 [nM]	Structure (SMILES)
> 20000	CCOC(=O)c1ccc(NC(=O)NCc2c[nH]nc2N)cc1 [Ethyl 4-(3-((3-amino-1H-pyrazol-4-yl)methyl)ureido)benzoate]
< 100	O=C(NCc1cn[nH]c1)Nc1ccc(NS(=O)(=O)c2ccccc2)cc1 [N-{4-[3-(1H-Pyrazol-4-ylmethyl)-ureido]-phenyl}-benzenesulfonamide]
100 to 2000	COc1cccc(NC(=O)c2ccc(NC(=O)NCc3cn[nH]c3)cc2)c1 [4-(3-((1H-pyrazol-4-yl)methyl)ureido)-N-(3-methoxyphenyl)benzamide]

Same assay, conditions: Table B-2; NAMPT activation, NMN formation

Structure (SMILES)	EC50 [nM]
CC(C)CN(C1CCCC1)S(=O)(=O)c1ccc(NC(=O)NCc2ccncc2)cc1 [N-Cyclopentyl-N-isobutyl-4-(3-pyridin-4-ylmethyl-ureido)-benzenesulfonamide]	< 100
O=C(NCc1ccncc1)Nc1ccc(CS(=O)(=O)Nc2ccccc2)cc1 [N-Phenyl-C-[4-(3-pyridin-4-ylmethyl-ureido)-phenyl]-methanesulfonamide]	100 to 2000
O=C(NCc1ccncc1)Nc1ccc(C(=O)NCC2CCCC2)cc1 [N-(cyclopentylmethyl)-4-(3-(pyridin-4-ylmethyl)ureido)benzamide]	5000 to 20000
COCCCNS(=O)(=O)c1ccc(NC(=O)NCc2ccncc2)cc1 [N-(3-Methoxy-propyl)-4-(3-pyridin-4-ylmethyl-ureido)-benzenesulfonamide]	100 to 2000
COC(=O)c1ccccc1CNS(=O)(=O)c1ccc(NC(=O)NCc2ccncc2)cc1 [2-{[4-(3-Pyridin-4-ylmethyl-ureido)-benzenesulfonylamino]-methyl}-benzoic acid methyl ester]	< 100
CCOC(=O)c1ccc(NC(=O)NCc2ccncc2F)cc1 [Ethyl 4-(3-((3-fluoropyridm-4-yl)methyl)ureido)benzoate]	100 to 2000
O=C(NCc1ccncc1)Nc1ccc(S(=O)(=O)NCCN2CCCCC2)cc1 [N-(2-Piperidin-1-yl-ethyl)-4-(3-pyridin-4-ylmethyl-ureido)-benzenesulfonamide]	2000 to 5000

The next lines start with the values.

EC50 [nM]	Structure (SMILES)
100 to 2000	COc1ccc(NS(=O)(=O)c2ccc(NC(=O)NCc3ccncc3)cc2)cc1 [N-(4-Methoxy-phenyl)-4-(3-pyridin-4-ylmethyl-ureido)-benzenesulfonamide]
< 100	O=C(NCc1ccncc1)Nc1ccc(S(=O)(=O)N2CCc3cccc(F)c3C2)cc1 [1-[4-(8-Fluoro-3,4-dihydro-1H-isoquinoline-2-sulfonyl)-phenyl]-3-pyridin-4-ylmethyl-urea]
2000 to 5000	O=C(NCc1ccncc1)Nc1ccc(S(=O)(=O)NC2CC2)cc1 [N-Cyclopropyl-4-(3-pyridin-4-ylmethyl-ureido)-benzenesulfonamide]

Same assay, conditions: Table B-3; NAMPT activation, NMN formation

EC50 [nM]	Structure (SMILES)
> 20000	COc1ccc(NC(=O)NCc2cccnc2)cc1 [1-(4-Methoxyphenyl)-3-(pyridin-3-ylmethyl)urea]
> 20000	O=C(NCc1cccnc1)Nc1ccc(Cl)cc1 [1-(4-Chlorophenyl)-3-(pyridin-3-ylmethyl)urea]

Same assay, conditions: Table B-4; NAMPT activation, NMN formation

EC50 [nM]	Structure (SMILES)
5000 to 20000	O=C(NCc1cn[nH]c1)Nc1ccc(Nc2nc(-c3ccccc3Cl)cs2)cc1 [1-{4-[4-(2-Chloro-phenyl)-thiazol-2-ylamino]-phenyl}-3-(1H-pyrazol-4-ylmethyl)-urea]
5000 to 20000	O=C(NCc1cn[nH]c1)Nc1ccc(-c2nc3ccccc3s2)cc1 [1-((1H-Pyrazol-4-yl)methyl)-3-(4-(benzo[d]thiazol-2-yl)phenyl)urea]
100 to 2000	Cc1ccc2c(c1)c(-c1ccc(NC(=O)NCc3cn[nH]c3)cc1)nn2C [1-((1H-Pyrazol-4-yl)methyl)-3-(4-(1,5-dimethyl-1H-indazol-3-yl)phenyl)urea]
5000 to 20000	N#Cc1ccc(-c2ccccc2S(=O)(=O)c2ccc(NC(=O)NCc3cn[nH]c3)cc2)cc1 [1-((1H-Pyrazol-4-yl)methyl)-3-(4-((4′-cyano-[1,1′-biphenyl]-2-yl)sulfonyl)phenyl)urea]

Same assay, conditions: Table B-5; NAMPT activation, NMN formation

EC50 [nM]	Structure (SMILES)
100 to 2000	COc1cccc(S(=O)(=O)c2ccc(NC(=O)NCc3cnco3)cc2)c1 [1-[4-(3-methoxy-benzenesulfonyl)-phenyl]-3-oxazol-5-ylmethyl-urea]
100 to 2000	O=C(NCc1cnco1)Nc1ccc(S(=O)(=O)c2nccs2)cc1 [1-Oxazol-5-ylmethyl-3-[4-(thiazole-2-sulfonyl)-phenyl]-urea]
100 to 2000	O=C(NCc1cnco1)Nc1ccc(S(=O)(=O)c2ccccc2Cl)cc1 [1-[4-(2-Chloro-benzenesulfonyl)-phenyl]-3-oxazol-5-ylmethyl-urea]

Same assay, conditions: Table B-6; NAMPT activation, NMN formation

Structure (SMILES)	EC50 [nM]
Cn1nc(-c2ccc(NC(=O)NCc3ccncc3)cc2)c2cccnc21 [1-[4-(1-Methyl-1H-pyrazolo[3,4-b]pyridin-3-yl)-phenyl]-3-pyridin-4-ylmethyl-urea]	5000 to 20000
O=C(NCc1cn[nH]c1)Nc1ccc(S(=O)(=O)c2cccc(C(F)(F)F)c2)cc1 [1-((1H-Pyrazol-4-yl)methyl)-3-(4-((3-(trifluoromethyl)phenyl)sulfonyl)phenyl)urea]	100 to 2000
O=C(NCc1ccncc1)Nc1ccc(S(=O)(=O)c2ccccc2-c2ccccc2Cl)cc1 [1-(4-((2′-Chloro-[1,l′-biphenyl]-2-yl)sulfonyl)phenyl)-3-(pyridin-4-ylmethyl)urea]	100 to 2000
Cn1nc(-c2ccc(NC(=O)NCc3ccncc3)cc2)c2cc(Cl)ccc21 [1-(4-(5-Chloro-1-methyl-1H-indazol-3-yl)phenyl)-3-(pyridin-4-ylmethyl)urea]	2000 to 5000

The remaining lines, values ahead:

EC50 [nM]	Structure (SMILES)
< 100	O=C(NCc1ccncc1)Nc1ccc(NS(=O)(=O)Cc2cccc(F)c2)cc1 [C-(3-Fluoro-phenyl)-N-[4-(3-pyridin-4-ylmethyl-ureido)-phenyl]-methanesulfonamide]
100 to 2000	O=C(NCc1ccncc1)Nc1ccc(S(=O)(=O)c2ccc(Cl)c(Cl)c2)cc1 [1-[4-(3,4-Dichloro-benzenesulfonyl)-phenyl]-3-pyridin-4-ylmethyl-urea]
100 to 2000	Cc1cccc(S(=O)(=O)c2ccc(NC(=O)NCc3ccncc3)cc2)c1 [1-Pyridin-4-ylmethyl-3-[4-(toluene-3-sulfonyl)-phenyl]-urea]
< 100	O=C(NCc1ccncc1)Nc1ccc(S(=O)(=O)c2cccc(OC(F)(F)F)c2)cc1 [1-Pyridin-4-ylmethyl-3-[4-(3-trifluoromethoxy-benzenesulfonyl)-phenyl]-urea]
< 100	Cc1cccc(CS(=O)(=O)Nc2ccc(NC(=O)NCc3ccncc3)cc2)c1 [N-[4-(3-Pyridin-4-ylmethyl-ureido)-phenyl]-C-m-tolyl-methanesulfonamide]
100 to 2000	O=C(NCc1ccncc1)Nc1ccc(S(=O)(=O)c2ccccc2C(F)(F)F)cc1 [1-Pyridin-4-ylmethyl-3-[4-(2-trifluoromethyl-benzenesulfonyl)-phenyl]-urea]
< 100	O=C(NCc1ccncc1)Nc1ccc(NS(=O)(=O)Cc2ccccc2F)cc1 [C-(2-Fluoro-phenyl)-N-[4-(3-pyridin-4-ylmethyl-ureido)-phenyl]-methanesulfonamide]
100 to 2000	O=C(NCc1ccncc1)Nc1ccc(S(=O)(=O)c2ccc(OC(F)(F)F)cc2)cc1 [1-Pyridin-4-ylmethyl-3-[4-(4-trifluoromethoxy-benzenesulfonyl)-phenyl]-urea]
< 100	O=C(NCc1ccncc1)Nc1ccc(S(=O)(=O)c2ccc(F)c(F)c2)cc1 [1-[4-(3,4-Difluoro-benzenesulfonyl)-phenyl]-3-pyridin-4-ylmethyl-urea]
5000 to 20000	O=C(NCc1ccncc1)Nc1ccc(S(=O)(=O)c2ccccc2-c2ccc(Cl)cc2)cc1 [1-[4-(4′-Chloro-biphenyl-2-sulfonyl)-phenyl]-3-pyridin-4-ylmethyl-urea]
